Results reported in patent publication US10906915B2, “Substituted pyrazoloazepin-4-ones and their use as phosphodiesterase inhibitors” (LEO Pharma A/S, priority 2016, dated 2021).
Where two headings read alike, the source gives them in different places.

Target: human PDE4D catalytic domain (UniProt no. Q08499) (Homo sapiens (Human), UniProt Q08499)
Test: PDE4 assay (TR-FRET, FAM-cAMP cleavage)
Format: biochemical
Settings: read-out: PDE4 IC50 range
In short: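 PDE4D catalytic domain ([…]) was incubated with unlabelled cAMP plus FAM-cAMP and titrated compound, stopped with binding buffer of metal-ion nanoparticles and Tb donor. AMP generation read by TR-FRET; IC50 as 50% inhibition of cleavage versus controls, reported as nM ranges.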

[1] = human PDE4D catalytic domain, molar concentration giving 50% inhibition of substrate cleavage

Chain of human PDE4D catalytic domain (Q08499 380-740 limits assumed): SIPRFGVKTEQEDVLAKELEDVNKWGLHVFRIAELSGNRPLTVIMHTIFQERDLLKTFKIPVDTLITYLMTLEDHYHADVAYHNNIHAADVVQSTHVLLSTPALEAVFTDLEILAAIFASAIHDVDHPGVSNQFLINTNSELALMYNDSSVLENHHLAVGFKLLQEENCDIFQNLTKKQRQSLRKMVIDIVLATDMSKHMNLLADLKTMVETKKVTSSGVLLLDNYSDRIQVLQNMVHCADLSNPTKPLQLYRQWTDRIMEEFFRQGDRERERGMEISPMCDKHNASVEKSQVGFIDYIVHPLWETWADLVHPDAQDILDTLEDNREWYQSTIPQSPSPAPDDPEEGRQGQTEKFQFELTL

Row | Structure (SMILES) | IC50 [1] [µM] | IC50 [µM]
1 | CCc1nn(C[C@@H](C)COC(=O)c2cccc(F)c2)c2c1C(=O)NCC1(CCOCC1)C2 [Example 165, [(2R)-3-(3-ethyl-4-oxo-spiro[6,8-dihydro-5H-pyrazolo[4,3-c]azepine-7,4′-tetrahydropyran]-1-yl)-2-methyl-propyl] 3-fluorobenzoate] | < 0.1 | 
2 | CCc1nn(CCCOC(=O)c2ccc3c(c2)OCO3)c2c1C(=O)NCC1(CCOCC1)C2 [Example 57, 3-(3-ethyl-4-oxo-spiro[6,8-dihydro-5H-pyrazolo[4,3-c]azepine-7,4′-tetrahydropyran]-1-yl)propyl 1,3-benzodioxole-5-carboxylate] | < 0.1 | 
3 | CCc1nn(C[C@@H](C)COC(=O)c2cc(Cl)ccc2F)c2c1C(=O)NCC1(CCOCC1)C2 [Example 202, [(2R)-3-(3-ethyl-4-oxo-spiro[6,8-dihydro-5H-pyrazolo[4,3-c]azepine-7,4′-tetrahydropyran]-1-yl)-2-methyl-propyl] 5-chloro-2-fluoro-benzoate] | < 0.1 | 
4 | CCc1nn(C[C@@H](C)COC(=O)c2cc(F)cc(C#N)c2)c2c1C(=O)NCC1(CCOCC1)C2 [Example 182, [(2R)-3-(3-ethyl-4-oxo-spiro[6,8-dihydro-5H-pyrazolo[4,3-c]azepine-7,4′-tetrahydropyran]-1-yl)-2-methyl-propyl] 3-cyano-5-fluoro-benzoate] | < 0.1 | 
5 | CCc1nn(CCCOC(=O)c2cccc(C#N)c2)c2c1C(=O)NCC1(CCOCC1)C2 [Example 23, 3-(3-ethyl-4-oxo-spiro[6,8-dihydro-5H-pyrazolo[4,3-c]azepine-7,4′-tetrahydropyran]-1-yl)propyl 3-cyanobenzoate] | < 0.1 | 
6 | CCc1nn(CCCOC(=O)c2cccc(C(F)(F)F)c2C)c2c1C(=O)NCC1(CCOCC1)C2 [Example 104, 3-(3-ethyl-4-oxo-spiro[6,8-dihydro-5H-pyrazolo[4,3-c]azepine-7,4′-tetrahydropyran]-1-yl)propyl 2-methyl-3-(trifluoromethyl)benzoate] | < 0.1 | 
7 | CCc1nn(C[C@@H](C)COC(=O)c2ccc(Cl)cc2)c2c1C(=O)NCC1(CCOCC1)C2 [Example 175, [(2R)-3-(3-ethyl-4-oxo-spiro[6,8-dihydro-5H-pyrazolo[4,3-c]azepine-7,4′-tetrahydropyran]-1-yl)-2-methyl-propyl] 4-chlorobenzoate] | < 0.1 | 
8 | CCc1nn(C[C@H](C)COC(=O)c2ccc(F)cc2)c2c1C(=O)NCC1(CCOCC1)C2 [Example 277, [(2S)-3-(3-ethyl-4-oxo-spiro[6,8-dihydro-5H-pyrazolo[4,3-c]azepine-7,4′-tetrahydropyran]-1-yl)-2-methyl-propyl] 4-fluorobenzoate] |  | < 0.1
9 | CCc1nn(CCCOC(=O)c2ccc(C(=O)N3CCCC3)cc2)c2c1C(=O)NCC1(CCOCC1)C2 [Example 145, 3-(3-ethyl-4-oxo-spiro[6,8-dihydro-5H-pyrazolo[4,3-c]azepine-7,4′-tetrahydropyran]-1-yl)propyl 4-(pyrrolidine-1-carbonyl)benzoate] | 0.1 to 0.5 | 
10 | CCc1nn(CCCOC(=O)c2ccc(S(N)(=O)=O)cc2)c2c1C(=O)NCC1(CCOCC1)C2 [Example 101, 3-(3-ethyl-4-oxo-spiro[6,8-dihydro-5H-pyrazolo[4,3-c]azepine-7,4′-tetrahydropyran]-1-yl)propyl 4-sulfamoylbenzoate] | < 0.1 | 
11 | CCc1nn(CCCOC(=O)C2CC(F)(F)C2)c2c1C(=O)NCC1(CCOCC1)C2 [Example 14, 3-(3-ethyl-4-oxo-spiro[6,8-dihydro-5H-pyrazolo[4,3-c]azepine-7,4’-tetrahydropyran]-1-yl)propyl 3,3-difluorocyclobutane-carboxylate] | 0.1 to 0.5 | 
12 | CCc1nn(CCCCOC(=O)c2cccc(S(=O)(=O)NC)c2)c2c1C(=O)NCC1(CCOCC1)C2 [Example 372, 4-(3-ethyl-4-oxo-spiro[6,8-dihydro-5H-pyrazolo[4,3-c]azepine-7,4′-tetrahydropyran]-1-yl)butyl 3-(methylsulfamoyl)benzoate] |  | < 0.1
13 | CCc1nn(C[C@@H](C)COC(=O)c2cccc(F)c2Cl)c2c1C(=O)NCC1(CCOCC1)C2 [Example 201, [(2R)-3-(3-ethyl-4-oxo-spiro[6,8-dihydro-5H-pyrazolo[4,3-c]azepine-7,4′-tetrahydropyran]-1-yl)-2-methyl-propyl] 2-chloro-3-fluoro-benzoate] | < 0.1 | 
14 | CCc1nn(C[C@@H](C)COC(=O)c2ccc(C#N)c(F)c2)c2c1C(=O)NCC1(CCOCC1)C2 [Example 185, [(2R)-3-(3-ethyl-4-oxo-spiro[6,8-dihydro-5H-pyrazolo[4,3-c]azepine-7,4′-tetrahydropyran]-1-yl)-2-methyl-propyl] 4-cyano-3-fluoro-benzoate] | < 0.1 | 
15 | CCc1nn(C[C@@H](C)COC(=O)c2cccc(C(F)(F)F)c2C)c2c1C(=O)NCC1(CCOCC1)C2 [Example 217, [(2R)-3-(3-ethyl-4-oxo-spiro[6,8-dihydro-5H-pyrazolo[4,3-c]azepine-7,4′-tetrahydropyran]-1-yl)-2-methyl-propyl] 2-methyl-3-(trifluoromethyl)benzoate] | < 0.1 | 
16 | CCc1nn(CCCOC(=O)c2cc(C#N)ccc2F)c2c1C(=O)NCC1(CCOCC1)C2 [Example 56, 3-(3-ethyl-4-oxo-spiro[6,8-dihydro-5H-pyrazolo[4,3-c]azepine-7,4′-tetrahydropyran]-1-yl)propyl 5-cyano-2-fluoro-benzoate] | < 0.1 | 
17 | CCc1nn(C[C@@H](C)COC(=O)c2c(F)cccc2Cl)c2c1C(=O)NCC1(CCOCC1)C2 [Example 203, [(2R)-3-(3-ethyl-4-oxo-spiro[6,8-dihydro-5H-pyrazolo[4,3-c]azepine-7,4′-tetrahydropyran]-1-yl)-2-methyl-propyl] 2-chloro-6-fluoro-benzoate] | < 0.1 | 
18 | CCc1nn(CCCOC(=O)c2ccc(C)cc2)c2c1C(=O)NCC1(CCOCC1)C2 [Example 1, 3-(3-Ethyl-4-oxo-spiro[6,8-dihydro-5H-pyrazolo[4,3-c]azepine-7,4′-tetrahydropyran]-1-yl)propyl 4-methylbenzoate] | < 0.1 | 
19 | CCc1nn(CCCCOC(=O)c2ccc(C(=O)N3CCOCC3)cc2)c2c1C(=O)NCC1(CCOCC1)C2 [Example 381, 4-(3-ethyl-4-oxo-spiro[6,8-dihydro-5H-pyrazolo[4,3-c]azepine-7,4′-tetrahydropyran]-1-yl)butyl 4-(morpholine-4-carbonyl)benzoate] |  | 0.1 to 0.5
20 | CCc1nn(CCCOC(=O)c2ccc(F)c(Cl)c2)c2c1C(=O)NCC1(CCOCC1)C2 [Example 84, 3-(3-ethyl-4-oxo-spiro[6,8-dihydro-5H-pyrazolo[4,3-c]azepine-7,4′-tetrahydropyran]-1-yl)propyl 3-chloro-4-fluoro-benzoate] | < 0.1 | 
21 | CCc1nn(CC(C)(C)COC(=O)c2ccc(S(N)(=O)=O)cc2)c2c1C(=O)NCC1(CCOCC1)C2 [Example 309, [3-(3-ethyl-4-oxo-spiro[6,8-dihydro-5H-pyrazolo[4,3-c]azepine-7,4′-tetrahydropyran]-1-yl)-2,2-dimethyl-propyl] 4-sulfamoylbenzoate] |  | < 0.1
22 | CCc1nn(CCCOC(=O)c2ccc(F)cc2C(F)(F)F)c2c1C(=O)NCC1(CCOCC1)C2 [Example 109, 3-(3-ethyl-4-oxo-spiro[6,8-dihydro-5H-pyrazolo[4,3-c]azepine-7,4′-tetrahydropyran]-1-yl)propyl 4-fluoro-2-(trifluoromethyl)benzoate] | < 0.1 | 
